Where “and” joins values, the source holds several entries; their conditions need not be identical. Identical values can stand only once.
Legend:
Type in all cases: cell-based, human
KOPN8 cells [1] = assay: MTT cell viability assay; settings: MTT, 7 days
Procedure: (§1) Human leukemia cells K562, MV4;11 and RS4;11 (purchased from ATCC) and KOPN8, MOLM13 (purchased from DSMZ) were cultured in RPMI 1640 (Invitrogen) supplemented with 10% heat inactivated (h.i.) FBS and 1% penicillin/streptomycin (Invitrogen). SET2 cells (purchased from DSMZ) were cultured in RPMI 1640 supplemented with 20% h.i. FBS and 1% penicillin/streptomycin. Cells were plated at 1 × 10^5 to 2 × 10^5 cells/mL depending on cell line and treated with 0.25% DMSO or varying concentrations of compounds and incubated at 37 °C, 5% CO2 incubator for 7 days. Media was changed on day 3 or 4 and compounds were resupplied. […] Cell suspensions (100 μL) were transferred to the 96-well plates for each sample in quadruplicate at the time of media change. At day 7, 10 µL of MTT reagent (M6494, Molecular Probes™) was added to each well of the 96 well plate and incubated at 37 °C for 4 h. The formazan was then solubilized by adding 100 µL acidified 10% SDS solution and incubated at 37 °C overnight. Plates were read for absorbance at 570 nm using a PHERAstar BMG microplate reader. The experiments were performed two times in quadruplicates with calculation of mean and SD for each condition. Data were analyzed in Prism 8.0.0 to obtain GI50 values.
(§2) Supplementary Figure 7. […] (a)
(§3) Titration curves from the MTT cell viability assay performed after 4, 7, and 11 (or 10) days of
(§4) Titration curves from the MTT cell viability assay performed after 7 days of treatment of KOPN8 ,
(§5) MOLM13 and MV4;11 cell lines harboring MLL1 translocation (MLL1-r) or K562 cell line (non-
(§6) Representative graphs are shown
(§7) from two independent MTT experiments performed for each cell line. GI50 values correspond to […]

K562 cells = assay: MTT cell viability assay
Procedure: as §1, §2, §3, §4, §5, §6, §7

KOPN8 cells [2] = assay: Annexin V apoptosis assay (flow cytometry); settings: 7 days
MV4;11 cells = assay: MTT cell viability assay; settings: MTT, 7 days
Procedure: (§8) FBS and 1% penicillin/streptomycin. […] Media was changed on day 3 or 4 and compounds were resupplied. […] Cell suspensions (100 μL) were transferred to the 96-well plates for each sample in quadruplicate at the time of media change. At day 7, 10 µL of MTT reagent (M6494, Molecular Probes™) was added to each well of the 96 well plate and incubated at 37 °C for 4 h. The formazan was then solubilized by adding 100 µL acidified 10% SDS solution and incubated at 37 °C overnight. Plates were read for absorbance at 570 nm using a PHERAstar BMG microplate reader. The experiments were performed two times in quadruplicates with calculation of mean and SD for each condition. Data were analyzed in Prism 8.0.0 to obtain GI50 values.
as §2, §3, §4, §5, §6
(§9) from two independent MTT experiments performed for each cell line.

MOLM13 cells = assay: MTT cell viability assay; settings: MTT, 7 days
Procedure: as §8, §2, §3, §4, §5, §6, §9

[3] = system: MLL fusion target genes in MV4;11 cells; assay: Real time qRT-PCR gene expression; settings: MV4;11, 7 days, 3 uM; normalized to HPRT1, referenced to DMSO
Procedure: 0.5 × 10^6 – 3 × 10^6 cells from each sample were collected at days 7 or 8 of treatment, centrifuged at 211 xg, and RNA was extracted according to the RNeasy Mini Kit protocol (74106, Qiagen). Extracted RNA was quantified using Nanodrop 2000 UV-Vis spectrophotometer and 0.5–1 µg of total RNA was reverse transcribed into cDNA using High-Capacity cDNA Reverse Transcription Kit (4368814, Applied Biosystems™) according to the manufacturer’s protocol. Real-time PCR was performed using the CFX96 Touch Real-Time PCR Detection System (Bio-Rad). TaqMan Gene Expression Master Mix and TaqMan Gene Expression Assays were purchased from Applied Biosystems. Relative quantification of each gene transcript was carried out using the comparative Ct method as described in the Applied Biosystems User Bulletin no. 2. TaqMan Gene Expression Assays were used: HPRT1: Hs02800695_m1, DLX2: Hs00269993_m1, FLT3: Hs00174690_m1, HOXA9: Hs00365956_m1, MEF2C: Hs00231149_m1, MEIS1: Hs00180020_m1, MNDA: Hs00935905_m1.
Supplementary Figure 10. Effect of AS-nc on gene expression in MLL leukemia cells. (a, b) Quantitative RT-PCR performed in MOLM13 cells (a) or MV4;11 cells (b) after 7 days of treatment with AS-nc. Gene expression was normalized to HPRT1 and referenced to the DMSO treated cells. Representative data from two independent experiments, each performed in triplicates, […]

CN1CC(C(=O)NCc2ccc3c(-c4cccc(C(N)=S)c4)cn(C4CCN(S(=O)(=O)C(F)(F)F)CC4)c3c2)C1 [AS-99]
GI50 (KOPN8 cells [1]; Homo sapiens, KOPN-8, 168 h, KOPN8 (MLL1-r)): 2900 ± 300 nM
% activity KOPN-8 (KOPN8 cells [1]; log[compound] -4.92082): 5.251% and 4.98% (2×) and 5.115%
% activity KOPN-8 (KOPN8 cells [1]; log[compound] -5.22185): 1.863% and 1.728% and 2.134%
% activity KOPN-8 (KOPN8 cells [1]; log[compound] -5.52288): 50.2371% and 54.1667% and 51.0501% and 53.0827%
% activity KOPN-8 (KOPN8 cells [1]; log[compound] -5.82391): 80.5894% and 71.1043% and 76.5244% and 75.7114%
% activity KOPN-8 (KOPN8 cells [1]; log[compound] -6.12494): 90.8875% and 88.855% and 90.6165% and 83.977%
% activity KOPN-8 (KOPN8 cells [1]; log[compound] -6.42597): 97.1206% and 99.8306% and 104.844% and 96.4431%
% activity KOPN-8 (KOPN8 cells [1]; log[compound] -6.727): 96.0366% and 101.457% and 104.844% and 97.6626%
GI50 (K562 cells; Homo sapiens, 168 h, K562 (non MLL1-r), MTT, 7 days): ~10 µM
% activity K562 (K562 cells; MTT, 7 days, log[compound] -4.92082): 34.51% and 35.23% and 31.55% and 35.55%
% activity K562 (K562 cells; MTT, 7 days, log[compound] -5.22185): 83.83% and 82.23% and 83.51% and 86.83%
% activity K562 (K562 cells; MTT, 7 days, log[compound] -5.52288): 95.95% and 103.51% and 103.55% and 93.67%
% activity K562 (K562 cells; MTT, 7 days, log[compound] -5.82391): 96.63% and 103.59% and 103.23% and 96.55%
% activity K562 (K562 cells; MTT, 7 days, log[compound] -6.12494): 84.15% and 92.83% and 97.87% and 96.55%
% activity K562 (K562 cells; MTT, 7 days, log[compound] -6.42597): 86.31% and 85.15% and 89.55% and 92.55%
% activity K562 (K562 cells; MTT, 7 days, log[compound] -6.727): 85.67% and 82.35% and 87.23% and 83.91%
effect on growth/proliferation of K562 cells (K562 cells; leukemia cells without MLL1 translocations): no or limited effects at 10 µM or higher concentrations
KOPN8 % Annexin V/PI+ cells (KOPN8 cells [2]; 1 uM): 4.46% and 5.06% and 4.65%
KOPN8 % Annexin V/PI+ cells (KOPN8 cells [2]; 2 uM): 6.92% and 8.33% and 6.49%
KOPN8 % Annexin V/PI+ cells (KOPN8 cells [2]; 3 uM): 6.23% and 7.5% and 8.51%
KOPN8 % Annexin V/PI+ cells (KOPN8 cells [2]; 4 uM): 31.1% and 33%
GI50 (MV4;11 cells; Homo sapiens, 168 h, MV4;11 (MLL1-r)): 1800 ± 200 nM
% activity MV4;11 (MV4;11 cells; log[compound] -4.92082): 1.588% and 2.029%
% activity MV4;11 (MV4;11 cells; log[compound] -5.22185): 0.6174% and 0.7056% and 0.9702%
% activity MV4;11 (MV4;11 cells; log[compound] -5.52288): 22.9327% and 24.6086% and 18.5226% and 19.2282%
% activity MV4;11 (MV4;11 cells; log[compound] -5.82391): 65.4465% and 63.065% and 69.151% and 68.269%
% activity MV4;11 (MV4;11 cells; log[compound] -6.12494): 88.9085% and 99.8456% and 101.963% and 98.4344%
% activity MV4;11 (MV4;11 cells; log[compound] -6.42597): 97.7288% and 98.9636% and 100.639% and 102.668%
GI50 (MOLM13 cells; Homo sapiens, MOLM-13, 168 h, MOLM13 (MLL1-r)): 3.6 ± 0.3 µM
% activity MOLM-13 (MOLM13 cells; log[compound] -4.92082): 3.13% and 3.054% and 2.978%
% activity MOLM-13 (MOLM13 cells; log[compound] -5.22185): 1.145% and 1.069% and 1.222%
% activity MOLM-13 (MOLM13 cells; log[compound] -5.52288): 67.0357% and 69.5553% and 72.2275% and 71.6931%
% activity MOLM-13 (MOLM13 cells; log[compound] -5.82391): 99.1792% and 96.2016% and 97.7286% and 103.76%
% activity MOLM-13 (MOLM13 cells; log[compound] -6.12494): 111.472% and 117.274% and 111.243% and 116.205%
% activity MOLM-13 (MOLM13 cells; log[compound] -6.42597): 98.5684% and 93.0712% and 98.6448% and 96.736%
DLX2 expression [3]: 0.19 and 0.27 and 0.29
FLT3 expression [3]: 0.7 and 0.8 and 0.73
HOXA9 expression [3]: 0.46 and 0.64 and 0.75
MEF2C expression [3]: 0.64 and 0.74 and 0.63
MEIS1 expression [3]: 0.76 and 0.82 and 1.02
MNDA expression [3]: 1.48 and 1.84 and 1.74

Source: publication PMC8121805, “Discovery of first-in-class inhibitors of ASH1L histone methyltransferase with anti-leukemic activity” (Nature Communications, 2021)
